In patent US9682993B2, “Anticancer compounds” (ST. JUDE CHILDREN'S RESEARCH HOSPITAL, priority 2012, dated 2017):
Like-named read-outs stand apart in the source and are kept apart here.

How the values were obtained:
[1] = system: cytotoxicity or splicing modulation; assay: Rapid onset of cytotoxicity or splicing modulation; assay type: cell-based; conditions: maximum cytotoxicity or splicing modulation within 5 hours of drug treatment
Experimental: The cell were seeded in of 100 μl of medium into 96-well plates (HeLa at 4×10^4 cell/well; SK_MEL_2 at 6×10^4 cell/well), they were allowed to attach overnight, and then treatments started by adding 50 μl of medium containing Sudemycin D6 to produce a final concentration of 1 μM and DMSO to 0.5% v/v final into the experimental well. Continuous drug treatments were run in the same plate, using concentrations of 0, 62.5, 125, 250, 500 & 1000 nM final. DMSO was added into all wells, including non-treated wells to 0.5% v/v final concentration. For wells where the drug was withdrawn, the medium was carefully aspirated after 1, 2, 3 and 4 hours after the addition of the drug, the cells were washed once with PBS and then 150 μl of fresh cell culture medium containing 0.5% v/v DMSO was added into all washed out wells. After 72 hours of the addition of drug, the cell viability was determined using CellTiter-Glo luminescent cell viability assay (Promega, Madison, Wis.), and Sudemycin D6 cytotoxicity was calculated as the percentage of cell proliferation inhibition against the control treatment DMSO.

[2] = system: JeKo1; assay: In vitro cytotoxicity analysis, JeKo1; assay type: cell-based; conditions: Homo sapiens, JeKo-1
From the text: (§1) The A549 lung cancer, WiDr colorectal cancer, MCF-7 breast cancer, PC-3 prostate cancer, and OVCAR-3 ovarian cancer cell lines were purchased from the American Type Culture Collection (ATCC, Manassas, Va.) and were maintained in growth media as recommended by the ATCC. The JeKo-1 and JVM-2 mantle cell lymphoma cell lines were purchased from the DSMZ (Brunswick, Germany) and were maintained in growth media as recommended by the vendor. The pediatric rhabdomyosarcoma Rh18 cell line was provided y Dr. P. Houghton (Ohio State University—Nationwide Children's Hospital, Columbus, Ohio) and were maintained in growth media as recommended by Dr. Houghton. All cell culture media were supplemented with L-glutamine and penicillin/streptomycin. All cells were grown under standard culture conditions in CO2 incubators, at 37° C., with 5% CO2, and 100% relative humidity.
(§2) Cell viabilities were determined by measuring the cleavage of (sodium 3′-[1-(phenylaminocarbonyl)-3,4-tetrazolium]-bis(4-methoxy-6-nitro)benzene sulfonic acid hydrate) (XTT) to a water-soluble orange formazan by mitochondrial dehydrogenase, following the manufacturer's instructions (Roche Applied Science, Indianapolis, Ind.). Briefly, cell lines were seeded at various cell densities depending on the cell type. The adherent cell lines were allowed to adhere overnight before compound addition, whereas the suspension cell lines were seeded the day of compound addition. Stock concentrations of the compounds were made in DMSO, diluted in culture media and subsequently added to the plates at various final concentrations, then incubated for 72 hours. After the incubation period, the XTT labeling reagent, containing the electron-coupling reagent, was added to each well and incubated for 4 hours. The absorbance of each well was then read at 490 nm with a reference wavelength of 690 nm using a VersaMax™ microplate reader (Sunnyvale, Calif.). Data are expressed as the percentage of growth compared to vehicle-treated cells, as calculated from absorbance and corrected for background absorbance.
(§3) Alternatively, cell lines were seeded in 100 μL cell culture medium in 96-well plates. Depending on the cell proliferation rate, cells were seeded at 4,000 to 6,000 cells/well. Suspension cell cultures were initiated with 20,000 cells/well. The cells were incubated overnight at 37° C., and then the drug treatments were started by adding 50 μL medium containing the corresponding drug dilution and DMSO. The final concentration of DMSO onto the cells was 0.5% v/v in all wells. The cells viability was determined using the CellTiter-Glo Luminescent Cell Viability Assay (Promega, Madison, Wis.). The CellTiter-Glo reagent was prepared according to the manufacturer's instructions, and then 50 μL reagent was added to each well for 1 h at rt. The luminescence was measured on an Envision Multilabel Plate Reader (PerkinElmer, Waltham, Mass.). The IC50 values were calculated from the dose-response curve analysis with GraphPad Prism 6.01 (GraphPad Software, La Jolla, Calif.) using the nonlinear regression model 4 Parameter Logistic. Nine concentrations were generated by 1:2 serial dilutions for each IC50 assay. Each drug concentration was evaluated in triplicate or quadruplicate.

[3] = system: MDM2 alternative splicing in Rh18 cells; assay: In vitro alternative splicing assay (MDM2, RT-PCR); assay type: cell-based; conditions: for MDM2 Splicing Effects: Rh18 cells, 8 h exposure, Table II
Experimental: Briefly, following an 8 h exposure of exponentially growing cells to drug, total RNA was isolated using TRIzol reagent (Invitrogen, Carlsbad, Calif.). Total RNA (1 μg) was used to convert the mRNA to cDNA by using random primers, Oligo(dT)16 and Omniscript Reverse Transcription Kit (Qiagen, Germantown, Md.). PCR analyses were performed using specific oligonucleotides (see Table I) and standard amplification protocols. PCR products were separated by agarose gel electrophoresis, visualized by ethidium bromide staining on an UV transilluminator, and recorded. PCR band sizes were calculated by comparing them to the standard EZ Load 100-bp PCR Molecular Ruler (BioRad Laboratories, Hercules, Calif.).

[4] = Solubility in phosphate buffered saline (HPLC); assay type: physicochemical
[5] = Mouse plasma stability (HPLC); assay type: in vitro ADME; conditions: mouse plasma at 37° C.
[6] = system: PC3; assay: In vitro cytotoxicity analysis, PC3; assay type: cell-based; conditions: Homo sapiens
From the text: as §1, §2, §3

[7] = system: cell lines investigated; assay: Drug combination assays, cell line not stated; assay type: cell-based
Experimental: (§4) Preliminary cytotoxic screenings for each drug used in drug combination assays were performed to determine their cytotoxic dose range. […] Eight concentrations were established by 1:3 serial dilutions of the single drugs and their combinations with the splicing modulators. All drug concentrations were evaluated in triplicate in 96-well cell culture plates. Assays of individual drugs and drug combinations were run on the same tissue culture plate. Cell viability was determined using the CellTiter-Glo reagent.
(§5) Luminescence data obtained from the cell viability determinations were formatted per the requirements of the analytical software (viability data range: >0 and <1). The formatted data were analyzed with the software CalcuSyn 2.1 (Biosoft, Cambridge, UK), which provides quantitative CI values for the drug interaction analyses (see ranges in Supplementary Table S2).

[8] = system: HeLa; assay: Drug combination assay, HeLa; assay type: cell-based
Experimental: as §4, with “reagent. Drug interactions, in terms of synergism, additive effect, or antagonism, were based on the drugs' Combination Index (CI) (Chou et al., Adv. Enzyme Regul. 1984, 22, 27).” for “reagent.”
as §5, with “S2). […] Therefore, in these two cases the drug interaction was evaluated by comparing the IC50 value of Sudemycin with that of the IC50 values resulting from the serial dilutions of the splicing modulator combined with a constant dose of the non-toxic drug.” for “S2).”

[9] = system: SK-MEL-2; assay: Drug combination assay, SK-MEL-2; assay type: cell-based; conditions: for Interaction Type: listed drug combined with compound 19, Ineffective = drug IC50 much higher than 1 μM
Experimental: as §4, §5

[10] = system: WiDr; assay: Drug combination assay, WiDr; assay type: cell-based; conditions: inhibitor + compound 19
Experimental: as §4, with “reagent. Drug interactions, in terms of synergism, additive effect, or antagonism, were based on the drugs' Combination Index (CI) (Chou et al., Adv. Enzyme Regul. 1984, 22, 27).” for “reagent.”
as §5, with “S2). […] Therefore, in these two cases the drug interaction was evaluated by comparing the IC50 value of Sudemycin with that of the IC50 values resulting from the serial dilutions of the splicing modulator combined with a constant dose of the non-toxic drug.” for “S2).”

[11] = system: PC-3; assay: Drug combination assay, PC-3; assay type: cell-based; conditions: inhibitor + compound 19
Experimental: as §4, with “reagent. Drug interactions, in terms of synergism, additive effect, or antagonism, were based on the drugs' Combination Index (CI) (Chou et al., Adv. Enzyme Regul. 1984, 22, 27).” for “reagent.”
as §5, with “S2). […] Therefore, in these two cases the drug interaction was evaluated by comparing the IC50 value of Sudemycin with that of the IC50 values resulting from the serial dilutions of the splicing modulator combined with a constant dose of the non-toxic drug.” for “S2).”

[12] = system: Sk-N-AS; assay: Drug combination assay, Sk-N-AS neuroblastoma; assay type: cell-based; conditions: Sk-N-AS; inhibitor + compound 19
Experimental: as §4, §5

[13] = system: c-kit positive bone marrow cells transduced with GFP, WT-U2AF1 or MUT-U2AF1 (S34F); assay: GFP expression and apoptosis in U2AF1 transduced cells; assay type: cell-based, C57BL/6 mice
Experimental: Bone marrow was collected from C57BL/6 mice and pooled together in a single solution, and then c-kit positive cells were selected. The c-kit positive cells were cultured with media enriched with stem cell factor (SCF), Flt-3, IL3, and thromboprotein (TPO), and other cytokines. Murine stem cell virus (MSCV) was used to transduce these cells with one of three constructs as indicated in the figure: GFP (control), U2AF1-IRES-GFP (indicated as WT-U2AF1 in the figure), or U2AF1^S34F-IRES-GFP (indicated as MUT-U2AF1 in the figure). The transduced cells carry a construct that expresses GFP and as indicated wild-type or mutant U2AF1. The control cells construct expresses only GFP. […] The assay data are expressed as the percentage of annexin V stained cells among the GFP positive cells. […] These cells show an increased tendency to apoptosis (i.e. increased expression of annexin V) in the GFP positive cells.

[14] = system: AML blast cells with wild-type or mutant S34F U2AF1, CD34+ cells; assay: Replication by 5-ethynyl-2′-deoxyuridine incorporation; assay type: cell-based; conditions: concentration dependent; mutant vs wild-type U2AF1 AML blasts vs CD34+ cells
Experimental: Replication was determined from incorporation of 5-ethynyl-2′-deoxyuridine using standard assay techniques.

[15] = PC-3, Table III, read-out: PC3 IC50

## CC(/C=C/[C@@H]1C[C@]2(CO2)CC(C)(C)O1)=C\C[C@H]1CC[C@@H](NC(=O)/C=C\[C@H](C)OC(=O)C(C)C)CC1
[1]
  Rapid Onset: Yes (“Yes” indicates maximum cytotoxicity or splicing modulation is seen within 5 hours of drug treatment.)
[2]; Table II
  IC50: 0.047 µM
[3]
  MDM2 Splicing Effects: Yes
[4]
  Buffer Soluble: No
[5]
  Plasma Stability: No

## CCCCNC(=O)O[C@@H](C)/C=C\C(=O)N[C@H]1CO[C@@H](C/C=C(C)/C=C/[C@@H]2C[C@]3(CO3)CC(C)(C)O2)OC1
[2]; Table III
  IC50: > 1 µM
[6]; [15]
  IC50: > 10 µM

## CCN(CC)C(=O)O[C@@H](C)/C=C\C(=O)N[C@H]1CO[C@@H](C/C=C(C)/C=C/[C@@H]2C[C@]3(CO3)CC(C)(C)O2)OC1
[2]; Table III
  IC50: > 1 µM
[6]; PC-3, read-out: PC3 IC50
  IC50: > 10 µM

## COCCNC(=O)O[C@@H](C)/C=C\C(=O)N[C@H]1CO[C@@H](C/C=C(C)/C=C/[C@@H]2C[C@]3(CO3)CC(C)(C)O2)OC1
[2]; Table III
  IC50: > 1 µM
[6]; [15]
  IC50: > 10 µM

## CNC(=O)O[C@@H](C)/C=C\C(=O)N[C@H]1CO[C@@H](C/C=C(C)/C=C/[C@@H]2C[C@]3(CO3)CC(C)(C)O2)OC1
[2]; Table III
  IC50: 0.9 µM
[6]; PC-3, read-out: PC3 IC50
  IC50: > 10 µM

## CC(/C=C/[C@@H]1C[C@]2(CO2)CC(C)(C)O1)=C\C[C@H]1OC[C@@H](NC(=O)/C=C\[C@H](C)OC(N)=O)CO1
[2]; Table III
  IC50: 1.9 µM
[6]; [15]
  IC50: > 10 µM

## O=C(O)CCCCCCCCCCCNC(=O)NC12CC3CC(CC(C3)C1)C2 [AUDA]
[7]
  drug interaction with compound 19 (panel of 23 drugs): synergy
[7]; single drug in combination assays
  cytotoxic effect of drug alone: Neither AUDA nor NCND alone produced a cytotoxic effect
[8]; HeLa cells, 15 μM
  cytotoxicity alone: not cytotoxic
[9]
  Interaction Type: Synergism (0.3-0.7)

## C=CCN(/C=C1/C(=O)O[C@H](COC)[C@@]2(C)C1=C(O)C(=O)C1=C2[C@H](OC(C)=O)C[C@]2(C)C(=O)CC[C@@H]12)CC=C [PX-866]
[10]
  CI of 19 + inhibitor: 0.33
[7]
  drug interaction with compound 20: demonstrated synergy
[8]; HeLa, inhibitor + compound 19
  CI of 19 + inhibitor: 0.49
[9]; Combination Index at ED50, CalcuSyn 2.1, listed drug + compound 19
  CI in SK-MEL-2 with compound 19: 0.57
[9]; SK-MEL-2, inhibitor + compound 19
  CI of 19 + inhibitor: 0.57
[9]
  Interaction Type: Synergism (0.3-0.7)
[11]
  CI of 19 + inhibitor: 0.67
[12]
  CI of 19 + inhibitor: 0.65

## CC(/C=C/[C@@H]1C[C@]2(CO2)CC(C)(C)O1)=C\C[C@H]1CC[C@@H](NC(=O)/C=C\[C@H](C)OC(=O)N(C)C)CC1 [compound 19, (S,Z)-5-(((1R,4R)-4-((2E,4E)-5-((3R,5S)-7,7-Methyl-1,6-Dioxaspiro[2.5]Octan-5-Yl)-3-Methylpenta-2,4-Dien-1-Yl)Cyclohexyl)Amino)-5-Oxopent-3-En-2-Yl Dimethylcarbamate]
[7]; all cell lines investigated
  synergy with PI3K/mTOR inhibition: synergy is also seen
[13]; 75 or 100 nM
  apoptosis (annexin V stained cells among GFP positive cells): cells expressing mutant U2AF1 the most sensitive
[13]; concentration dependent, GFP vs WT-U2AF1 vs MUT-U2AF1 cells
  effect on expression of GFP from the splicing construct: greater sensitivity realized in the mutant U2AF1 cells
[14]
  effect on replication: cells expressing mutant U2AF1 are extremely sensitive
[3]; Rh18, 8 h, PCR (FIG. 9)
  alternative MDM2 splicing: induction of alternative MDM2 splicing

## CNC(=O)O[C@@H](C)/C=C\C(=O)N[C@H]1CC[C@@H](C/C=C(C)/C=C/[C@@H]2C[C@]3(CO3)CC(C)(C)O2)CC1 [drawing 208]
[1]
  Rapid Onset: Yes (“Yes” indicates maximum cytotoxicity or splicing modulation is seen within 5 hours of drug treatment.)
[2]; Table II
  IC50: 0.022 µM
[3]
  MDM2 Splicing Effects: Yes
[4]; aqueous buffer, read-out: Buffer Soluble
  solubility: > 10 µM
[5]
  Plasma Stability: Yes (“Yes” indicates mouse plasma stability is >5 hours in mouse plasma at 37 °C as determined by HPLC.)
